For 1 molecule, AUCs dose proportionality, C. dose proportionality and half-life results are on record in US11771671B2, “Use of (1S,3S)-3-amino-4-(difluoromethylidene) cyclopentane-1-carboxylic acid and (S)-3-amino-4-(difluoromethylenyl)cyclopent-1-ene-1-carboxylic acid in the treatment of tinnitus, acute sensorineural hearing loss, Meniere's disease, Tourette's syndrome, attention deficit hyperactivity disorder and …” (Ovid Therapeutics Inc., priority 2018, dated 2023).

The data set can be described thus: plasma pharmacokinetics. The class given is in vivo.

On to `N[C@H]1C[C@@H](C(=O)O)CC1=C(F)F` [(1S,3S)-3-amino-4-(difluoromethylidene)cyclopentane-1-carboxylic acid], for which, for the setting “dose range of 5 mg-500 mg”, the AUCs dose proportionality entry is on record as “greater than proportional increase” and the C. dose proportionality result is “increases in a dose proportional manner”. Moreover, for the setting “plasma, read-out: plasma elimination half-life”, the half-life was in the range of 4 to 6 h.
